The values below come from ChEMBL document CHEMBL1158692, “Lajollamycin, a nitro-tetraene spiro-beta-lactone-gamma-lactam antibiotic from the marine actinomycete Streptomyces nodosus” (J Nat Prod, 2005).

≈ marks a conversion by molar mass, not a printed value.

Experiment [1] has as its system Staphylococcus aureus. The experiment can be described thus: Antimicrobial activity against methicillin-sensitive Staphylococcus aureus after 14 to 16 hrs. It is filed as functional.
Experiment [2] concerns Staphylococcus aureus. The experiment can be described thus: Antimicrobial activity against methicillin-resistant Staphylococcus aureus after 14 to 16 hrs. It is filed as functional.
For another experiment, the system named is Escherichia coli. The experiment is described as follows: Antimicrobial activity against Escherichia coli after 14 to 16 hrs. It is filed as functional.
A further experiment has as its system B16-F10. The experiment can be described thus: Cytotoxicity against mouse B16F10 cells after 3 to 6 hrs. It is filed as functional, cell-based.
Another experiment has as its system Enterococcus faecalis. The experiment can be described thus: Antimicrobial activity against vancomycin-sensitive Enterococcus faecalis after 14 to 16 hrs. It is filed as functional.
In experiment [3] the test system is Streptococcus pneumoniae. The experiment can be described thus: Antimicrobial activity against penicillin-sensitive Streptococcus pneumoniae after 14 to 16 hrs. It is filed as functional.
In experiment [4] the test system is Streptococcus pneumoniae. The experiment can be described thus: Antimicrobial activity against penicillin-resistant Streptococcus pneumoniae after 14 to 16 hrs. It is filed as functional.
Another experiment deals with Enterococcus faecium. The experiment is described as follows: Antimicrobial activity against vancomycin-resistant Enterococcus faecium after 14 to 16 hrs. It is filed as functional.

Consider `COC(CC(C)C(O)/C=C/C=C/CNC(=O)C(C)(C)C(O)\C(C)=C/C=C\C=C\C(C)=C(/C)[N+](=O)[O-])C1(O)C(C)C(=O)N(C)C12C(=O)OC2C` (stereo not drawn) [LAJOLLAMYCIN], for which the MIC (as a rule, the least concentration at which growth counts as inhibited) is 4 µg/mL (≈ 5.82 µM) with Staphylococcus aureus [1]; 5 µg/mL (≈ 7.27 µM) in the experiment on Staphylococcus aureus [2]; 12 µg/mL (≈ 17.4 µM) in the experiment on Escherichia coli; 14 µg/mL (≈ 20.4 µM) against Enterococcus faecalis; 2 µg/mL (≈ 2.91 µM) in the experiment with Streptococcus pneumoniae [3]; 1.5 µg/mL (≈ 2.18 µM) in the experiment on Streptococcus pneumoniae [4]. Also, the MIC with Enterococcus faecium amounted to 20 µg/mL (≈ 29.1 µM). In the experiment with B16-F10, a half-maximal response (EC50) required 9.6 µM.
